Values of other authors as cited in patent US20040127402A1, “Injectible composition and method for treating degenerative animal joints” (priority 2002, published 2004).

How the values were obtained:
[1] = animal studies

Hyaluronic acid
duration of superiority to oral medications (osteoarthritis; in vivo, po): up to six | duration of positive benefits (osteoarthritis; joint lavage prior to hyaluronic acid therapy): up to one | chondroprotective effect [1]: mild chondroprotective effect
